US20190224186A1, “TREATMENT OF MULTIPLE SCLEROSIS WITH CHS-131” (InteKrin Therapeutics, Inc., priority 2016, published 2019)

Legend:
Assay type in all cases: in vivo, human
[1] = test system: MS patients in the relapsing and remitting course of the disease (RRMS); test: Slope of cortical atrophy at six months as a function of CE lesion number; conditions: n=70
Description: To evaluate the connection between the reduction in cortical volume loss and CHS-131 treatment, cortical volume was compared to observed CE lesion in the MS patients. […] The slopes of cortical atrophy at six months as a function of CE lesion number at six months was plotted for the placebo group (n=69), the CHS-131 1 mg/day group (n=70), and the CHS-131 3 mg/day group (n=70). For the placebo, 1 mg/day, and 3 mg/day groups the slopes were: −0.040391, −0.019631, and −0.001783, respectively. […] Thus, the reduction in CE lesions as a result of CHS-131 treatment is correlated with a reduction in the loss of cortical volume in MS patients.

[2] = test system: MS patients in the relapsing and remitting course of the disease (RRMS); test: Trend line of change in cortical volume versus EDSS scores; conditions: 6-month time point
Description: To evaluate the connection between cortical volume loss and dysfunction, the reduction in volume loss was compared to EDSS scores of the MS patients. FIGS. 5 and 6 show the relationship between the change in cortical volume and EDSS scores at 3 months and 6 months, respectively.

[3] = test system: MS patients in the relapsing and remitting course of the disease (RRMS); test: Phase 2 trial: whole brain volume by serial MRIs
Description: Whole brain volume was evaluated at baseline and six months in this study. Neural atrophy was measured by serial determination of brain volume using serial MRIs.

[4] = test system: MS patients in the relapsing and remitting course of the disease (RRMS); test: Phase 2 trial: new and enlarged T2 lesions over 6 months; conditions: for mean number of new and enlarged T2 lesions over 6 months: n=76
Description: A Phase 2, randomized, double-blind, placebo-controlled, multi-center clinical trial of CHS-131 for the treatment of multiple sclerosis (MS) was conducted. The primary endpoint was the number of new gadolinium contrast-enhancing (CE) T1-weighted lesions on monthly MRI over 6 months. The study enrolled MS patients in the relapsing and remitting course of the disease (RRMS) who had been diagnosed within ≤3 years of enrollment. Patients had to be treatment-naïve, have ≥1 gadolinium-positive lesion within 12 months of enrollment, and have an Expanded Disability Status Score (EDSS) of 0-6 at screening. Part 1 was a double-blind, parallel-group, 6-month study. Patients were randomized to oral CHS-131 at 3 mg or 1 mg or placebo in a 1:1:1 ratio at 21 sites in Russia. Monthly MRIs were read in a blinded fashion at the Buffalo Neuroimaging and Analysis Center, Buffalo, N.Y., USA. Part 2 is an open label, 6-month, safety extension study, in which all subjects transition to 1 mg CHS-131 daily, to evaluate clinical response, CE lesions on MM, and safety. The mean number of new and enlarged lesions over 6 months was 3.43 for 3 mg CHS131 (n=76), 4.21 for 1 mg CHS131 (n=76), and 4.89 for placebo (n=74). The response was dose-dependent.

O=S(=O)(Nc1cc(Cl)c(Oc2cnc3ccccc3c2)c(Cl)c1)c1ccc(Cl)cc1Cl [CHS-131]
slope of cortical atrophy at six months as a function of CE lesion number ([1]; 1 mg/day): −0.01963 | slope of cortical atrophy at six months as a function of CE lesion number ([1]; 3 mg/day): −0.001783 | trend line slope, change in cortical volume vs EDSS score ([2]; 1 mg): −0.138 | trend line slope, change in cortical volume vs EDSS score ([2]; 3 mg): 0.080 | less neural volume loss compared to placebo ([3]; 1 mg daily, 6 months): 13% | brain volume lost over 6 months ([3]; 1 mg/day): 0.14% | less parenchymal atrophy than the placebo treated cohort ([3]; 3 mg daily, 6 months): 50% | neural parenchyma volume lost over 6 months ([3]; 3 mg/day): 0.08% | reduction in T2 lesions compared to placebo (LSMeans analysis) ([4]; 1 mg): 14% | mean number of new and enlarged T2 lesions over 6 months ([4]; 1 mg): 4.21 | mean number of new and enlarged T2 lesions over 6 months ([4]; 3 mg): 3.43 | reduction in T2 lesions compared to placebo (LSMeans analysis) ([4]; 3 mg, p=0.0767): 30%
